Marks after values point to notes of the source that are not given here.
How the values were obtained:
[1] = tested on: gram-positive and gram-negative bacteria, yeasts and molds; conditions: cited from earlier work; for efficacy against gram-positive and gram-negative bacteria, yeasts and molds: over the pH range 5-7
[2] = tested on: bacteria, yeasts and molds; assay: USP test for preservative efficacy (overall); type: cell-based; conditions: 1% w/w, full vials, at the time of manufacture
Method: The target pH of the multidose vial is 6 and limits of 5 to 7. […] Efficacy of the preservative was therefore assessed over the lower pH range 4 to 6. Vials prepared at pH4, 5 and 6 were tested for preservative efficacy according to the USP XXII 1990—“Antimicrobial Preservative Effectiveness.”
For bacteria, the acceptance criteria require that the number of organisms per mL is reduced by a factor of not less than 10^3 in 14 days and there is no increase thereafter. All three batches met these criteria for P aeruginosa, S. aureus and E. coli.
All three batches met this criterion for C. albicans and A. niger.
In summary, vials prepared at pH4, 5 and 6 all pass the USP test for preservative efficacy.

[3] = Stability of preservative systems to autoclave (placebo solutions, pH6, 121° C.); type: physicochemical; conditions: for Content after 15 mins (% of initial): autoclaved 15 minutes at 121° C.; for Content after 15 mins (% of initial) / Contents after 60 mins (% of initial): pH6; for Contents after 60 mins (% of initial): autoclaved 60 minutes at 121° C.; for Initial content: placebo solution pH6, before autoclaving; for stability to autoclaving (in words): up to 60 minutes at 121° C.; for Area percent for the unknown peak at 15 mins / Content at 15 mins (percentage of total peak area): autoclaved 15 mins; for Area percent for the unknown peak at 60 mins / Content at 60 mins (percentage of total peak area): autoclaved 60 mins; for Area percent for the unknown peak, initial / Initial content (percentage of total peak area): before autoclaving; for Content at 15 mins (percentage of total peak area) / Content at 60 mins (percentage of total peak area) / Initial content (percentage of total peak area): single paraben system, area normalisation
Method: The five preservative systems were assessed for stability to the autoclave process. Placebo solutions were prepared at pH6, filled into 2 ml glass vials and autoclaved for 15 and 60 minutes at 121° C. A cycle time of 60 minutes was selected to mimic the most extreme conditions to which a vial on the outside of a full autoclave load could be subjected to. Solutions were prepared at pH6 since this was the target pH of the multidose dose formulation. The early experiments were performed using 2 ml flint glass vials and West #1816 Teflon faced, bromobutyl rubber stopper.
External standards of the parabens could not be prepared due to their poor aqueous solubility. The results were therefore determined by are normalization, whereby peak areas are expressed as a percentage of the total peak area of the chromatograph.
NOTE: The results are expressed as percentage of total peak area determined by area normalisation.
Area percent for the unknown peak

[4] = Stability of meta-cresol formulation to autoclaving; type: physicochemical; conditions: autoclave cycle
Method: To investigate this phenomenon further, the stability during autoclaving experiment was repeated on samples of the meta-cresol formulation. The degradation product content increased from 0.05% before autoclaving to 0.53% at 15 minutes then 0.93% at 60 minutes. […] Meta-cresol was therefore rejected as a possible preservative.

SMILES	efficacy as a function of pH ([1]; literature)	efficacy against gram-positive and gram-negative bacteria, yeasts and molds [1]	antimicrobial preservative efficacy [2]	Content after 15 mins (% of initial) [3]	Contents after 60 mins (% of initial) [3]	Initial content [3]	stability to autoclaving (in words) [3]	compatibility with granisetron hydrochloride [4]	Area percent for the unknown peak at 15 mins [3]	Area percent for the unknown peak at 60 mins [3]	Area percent for the unknown peak, initial [3]	Content at 15 mins (percentage of total peak area) [3]	Content at 60 mins (percentage of total peak area) [3]	Initial content (percentage of total peak area) [3]
OCc1ccccc1 [Benzyl Alcohol, Benzyl alcohol]	decreases with increasing pH above pH5	moderate efficacy	efficacious	100 % of initial	100 % of initial	10.0 mg/mL	good stability with no change in preservative content	–	–	–	–	–	–	–
Cc1cccc(O)c1 [Meta-Cresol, Meta-cresol]	–	good efficacy	–	100 % of initial	100 % of initial	2.6 mg/mL	good stability with no change in preservative content	incompatible	–	–	–	–	–	–
COC(=O)c1ccc(O)cc1 [Methyl-Parabens, Methyl paraben]	–	–	–	–	–	–	–	–	(3.7%)*	(6.5%)*	(0.2%)*	96.3%	93.5%	99.8%
CCCOC(=O)c1ccc(O)cc1 [Propyl Parabens, Propyl paraben]	–	–	–	–	–	–	–	–	1.6%	2.7%	0.6%	98.4%	97.2%	99.4%
